{"source": "the Kinase Knowledgebase extract (Sharma et al. 2016)", "data": [{"molecular_target": "EGFR (UniProt P00533)", "sequence (P00533 whole entry, looked up)": "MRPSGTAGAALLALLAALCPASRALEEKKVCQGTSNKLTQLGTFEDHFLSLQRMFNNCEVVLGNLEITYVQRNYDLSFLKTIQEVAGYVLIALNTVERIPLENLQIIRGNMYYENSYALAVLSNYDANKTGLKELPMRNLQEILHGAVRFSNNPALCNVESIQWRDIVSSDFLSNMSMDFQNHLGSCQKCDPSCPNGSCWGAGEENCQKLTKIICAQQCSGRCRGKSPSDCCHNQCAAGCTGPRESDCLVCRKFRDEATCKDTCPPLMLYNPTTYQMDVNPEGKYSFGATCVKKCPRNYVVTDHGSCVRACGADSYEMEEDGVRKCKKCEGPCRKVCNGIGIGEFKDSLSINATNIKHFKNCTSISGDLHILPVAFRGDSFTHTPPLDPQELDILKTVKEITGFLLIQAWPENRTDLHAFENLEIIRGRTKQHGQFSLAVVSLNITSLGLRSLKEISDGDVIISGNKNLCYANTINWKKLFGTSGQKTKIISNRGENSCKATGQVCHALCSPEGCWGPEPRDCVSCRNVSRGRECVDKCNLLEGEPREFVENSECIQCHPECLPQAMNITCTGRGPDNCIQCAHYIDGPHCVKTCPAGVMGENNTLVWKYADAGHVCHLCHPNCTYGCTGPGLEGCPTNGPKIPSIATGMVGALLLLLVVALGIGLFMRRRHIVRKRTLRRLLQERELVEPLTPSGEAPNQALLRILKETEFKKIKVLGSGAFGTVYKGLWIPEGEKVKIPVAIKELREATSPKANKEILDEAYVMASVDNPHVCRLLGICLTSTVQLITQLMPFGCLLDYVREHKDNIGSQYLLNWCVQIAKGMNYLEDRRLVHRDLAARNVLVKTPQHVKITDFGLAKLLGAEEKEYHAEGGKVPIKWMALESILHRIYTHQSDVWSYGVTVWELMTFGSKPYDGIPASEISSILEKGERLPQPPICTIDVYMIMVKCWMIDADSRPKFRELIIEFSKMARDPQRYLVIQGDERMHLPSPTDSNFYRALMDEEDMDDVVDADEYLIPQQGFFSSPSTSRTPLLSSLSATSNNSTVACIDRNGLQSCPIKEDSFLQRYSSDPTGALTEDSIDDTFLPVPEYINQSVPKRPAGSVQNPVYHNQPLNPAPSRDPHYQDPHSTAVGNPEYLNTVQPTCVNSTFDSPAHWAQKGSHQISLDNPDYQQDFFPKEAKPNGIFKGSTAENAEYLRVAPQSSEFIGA", "settings": "not given", "units": {"IC50": "µM"}, "values": [{"molecule": "COc1cc(/C=C(\\C#N)C(=O)c2ccc(C)cc2)cc(CSCc2ccccc2)c1O", "IC50": 4.5}]}, {"molecular_target": "EGFR (human) (UniProt P00533)", "sequence (P00533 whole entry, looked up)": "as above", "settings": "her 14", "units": {"IC50": "µM"}, "values": [{"molecule": "COc1cc(/C=C(\\C#N)C(N)=O)cc(CSc2ccccc2)c1O", "IC50": 12.5}, {"molecule": "COc1cc(/C=C(\\C#N)C(N)=O)cc(CSc2ccccc2C(=O)O)c1O", "IC50": "> 50"}, {"molecule": "COc1cc(/C=C(\\C#N)C(N)=O)cc(CSc2nc3ccccc3o2)c1O", "IC50": 6}, {"molecule": "COc1cc(C=C(C#N)C#N)cc(CSc2ccccc2)c1O", "IC50": 6}, {"molecule": "COc1cc(/C=C(\\C#N)C(N)=O)cc(CSc2ccc(O)cc2)c1O", "IC50": 2}, {"molecule": "COc1cc(C=C(C#N)C#N)cc(CSCC(=O)O)c1O", "IC50": "> 50"}, {"molecule": "COc1cc(/C=C(\\C#N)C(N)=O)cc(CSCc2ccccc2)c1O", "IC50": 12.5}, {"molecule": "N#C/C(=C\\c1cc(O)c(O)c(CSc2nc3ccccc3s2)c1)C(N)=O", "IC50": "> 50"}, {"molecule": "COc1cc(C=C(C#N)C#N)cc(CSc2ccccc2C(=O)O)c1O", "IC50": "> 50"}, {"molecule": "COc1cc(/C=C(\\C#N)C(N)=O)cc(CSc2ccccn2)c1O", "IC50": 16}, {"molecule": "COc1cc(/C=C(\\C#N)C(N)=O)cc(CSc2ccc3ccccc3c2)c1O", "IC50": 10}, {"molecule": "COc1cc(/C=C(\\C#N)C(N)=O)cc(CSCc2ccc(Cl)cc2)c1O", "IC50": 20}, {"molecule": "COc1cc(/C=C(\\C#N)C(N)=O)cc(CSc2nc3ccccc3[nH]2)c1O", "IC50": 35}, {"molecule": "COc1cc(/C=C(\\C#N)C(=O)c2ccc(O)c(O)c2)cc(CSCc2ccccc2)c1O", "IC50": 2}, {"molecule": "COc1cc(C=C(C#N)C#N)cc(CS(=O)(=O)c2ccc(C)cc2)c1O", "IC50": 15}, {"molecule": "COc1cc(/C=C(\\C#N)C(N)=O)cc(CSCc2ccccc2Cl)c1O", "IC50": 10}, {"molecule": "COc1cc(/C=C(\\C#N)C(N)=O)cc(CSc2ccccc2NC(C)=O)c1O", "IC50": 9}, {"molecule": "Cc1cc(C=C(C#N)C#N)cc(O)c1O", "IC50": 13}, {"molecule": "N#C/C(=C\\c1cc(O)c(O)c(CSCc2ccccc2)c1)C(N)=O", "IC50": 3}]}]}
